Experimental data: patent publication US20130317027A1, “COMPOUNDS AND THERAPEUTIC USES THEREOF” (Myrexis, Inc, priority 2010, published 2013)
Like-named read-outs stand apart in the source and are kept apart here.

Tested on: cancer cell lines
Assay: Cytotoxicity in a wide variety of cancer cell types (TC50, CellTiter-Glo, 72 or 96 hours)
Settings: read-out: TC50
Experimental: Exponentially growing cells were plated in fresh growth media in a 96-well black, flat, clear-bottomed polystyrene microtiter plate (Packard View Plate 6005182). Twenty-four hours later, compounds were added from serial dilutions prepared in DMSO from 50 mM DMSO stock solutions. Each concentration of inhibitor was tested in duplicate at a final DMSO concentration of 0.4%. After 72 or 96 hours incubation, cell viability was quantified by measuring intracellular ATP levels using CellTiter-Glo (Promega). Luminescence data was collected on a TopCount NXT plate reader (PerkinElmer). Experimental values were normalized to solvent controls and plotted versus compound concentration to determine the concentration required for a 50% reduction in cell viability.

O=C(NCc1cccnc1)Nc1ccc(COc2ccccc2-c2ccccc2)cc1 [Exemplary Compound A]
CC50 (A172 cells, glioma, 3 DAY): 1.1 nM
CC50 (COLO205 cells, colon, 3 DAY): 0.5 nM
CC50 (COLO205 cells, colon, 7 DAY): 0.3 nM
CC50 (DB cells, lymphoma, 3 DAY): 3.5 nM
CC50 (DMS-114 cells, SCLC, 3 DAY): 0.16 nM
CC50 (DU145 cells, prostate, 3 DAY): 3.9 nM
CC50 (DU145 cells, prostate, 7 DAY): 2.7 nM
CC50 (DU4475 cells, breast, 3 DAY): 0.1 nM
CC50 (DU4475 cells, breast, 7 DAY): 0.1 nM
CC50 (HCC827 cells, NSCLC, 3 DAY): 8 nM
CC50 (HCC827 cells, NSCLC, 7 DAY): 1.5 nM
CC50 (HCT116 cells, colon, 3 DAY): 0.6 nM
CC50 (HCT116 cells, colon, 7 DAY): 0.4 nM
CC50 (HCT-15 cells, colon, 3 DAY): 0.7 nM
CC50 (HCT-15 cells, colon, 7 DAY): 1 nM
CC50 (HOP92 cells, NSCLC, 3 DAY): 17 nM
CC50 (HOP92 cells, NSCLC, 7 DAY): 4.3 nM
CC50 (HT29 cells, colon, 3 DAY): 1.4 nM
CC50 (HT29 cells, colon, 7 DAY): 1.1 nM
CC50 (HT1080 cells, sarcoma, 3 DAY): 1 nM
CC50 (HT1080 cells, sarcoma, 7 DAY): 0.6 nM
CC50 (KM12 cells, colon, 3 DAY): 0.9 nM
CC50 (KM12 cells, colon, 7 DAY): 0.4 nM
CC50 (MDA-MB-231 cells, breast, 3 DAY): 10 nM
CC50 (MDA-MB-231 cells, breast, 7 DAY): 7.5 nM
CC50 (MIA PaCa-2 cells, pancreatic, 3 DAY): 1.8 nM
CC50 (MIA PaCa-2 cells, pancreatic, 7 DAY): 0.4 nM
CC50 (NCI-H69 cells, SCLC, 3 DAY): 1 nM
CC50 (NCI-H82 cells, SCLC, 3 DAY): 1.1 nM
CC50 (NCI-H460 cells, NSCLC, 3 DAY): 15.4 nM
CC50 (NCI-H522 cells, NSCLC, 3 DAY): 1 nM
CC50 (NCI-H522 cells, NSCLC, 7 DAY): 0.4 nM
CC50 (NCI-H929 cells, myeloma, 3 DAY): 2.5 nM
CC50 (NCI-H1650 cells, NSCLC, 3 DAY): 2.5 nM
CC50 (NCI-N87 cells, gastric, 3 DAY): 0.3 nM
CC50 (NCI-N87 cells, gastric, 7 DAY): 0.2 nM
CC50 (OCI-Ly19 cells, lymphoma, 3 DAY): 1.2 nM
CC50 (OPM-2 cells, myeloma, 3 DAY): 1.5 nM
CC50 (OVCAR3 cells, ovarian, 3 DAY): 1.1 nM
CC50 (OVCAR3 cells, ovarian, 7 DAY): 0.4 nM
CC50 (SF-295 cells, glioma, 3 DAY): 1.5 nM
CC50 (SU-DHL-4 cells, lymphoma, 3 DAY): 1.5 nM
CC50 (SU-DHL-5 cells, lymphoma, 3 DAY): 0.9 nM
CC50 (U-87MG cells, glioma, 3 DAY): 23 nM
